# US5952473A, “Reagent and kit for determining isoprenylating activity and inhibition thereof” (priority 1993, dated 1999)
# Target: T1, protein:farnesyl transferase (Oryctolagus cuniculus, UniProt G1SFC8+G1T7D9)
# T1 construct: immobilised CAAX peptide A and 3H-FPP as substrates
# Assay: Inhibition of protein:farnesyl transferase activity in rabbit reticulocyte lysate (pepAsep/pepBsep, 3H-FPP)
# Format: biochemical
# Settings: read-out: IC50 -value, 80 pmol peptide on Sepharose beads, 0.7 μM 3H-FPP, 30 min, 37° C., pepAsep minus pepBsep dpm
# Experimental: Commercially available rabbit reticulocyte lysate contains enzymes necessary for protein-isoprenylation, such as protein:farnesyl transferase activity (Vorburger, K., Kitten, G. T. and Nigg, E. G., EMBO J. 8 (1989) 4007-4013) and protein:geranylgeranyl transferase (Maltese, W. A. and Robishaw, J. D., J. Biol. Chem. 265 (1990) 18071-18074). Using pepAsep (example I) as substrate and pepBsep (example I) as control the assay of protein:farnesyl transferase activity was performed as follows: In 25 μl of a mixture containing 5 μl of pepAsep or pepBsep (both containing an equal quantity of peptide), 13 μl rabbit reticulocyte lysate (promega), 0.5 mM MgCl2, 1 mM DTT, 50 mM Tris-HCl (pH 7.4) and [^3 H]-farnesyl pyrophosphate (^3 H-FPP; concentration as indicated in the figures; specific radioactivity 15 Ci/mmol; ARC, USA) the incubation was performed at 37° C. for 30 min with continuous shaking. […] The radioactivity bound to the Sepharose was measured in a Packaged Tricarb liquid scintillation counter. […]
# 80 pmol of pepAsep and pepBsep/5 μl Sepharose were incubated for 30 minutes in the presence of 0.7 μM of [^3 H]-FPP and the indicated concentrations of the farnesyl pyrophosphate analogues FPPA1 and FPPA2 as mentioned in Example IV. The farnesylation activity was calculated as ^3 H-dpm bound to pepAsep minus the pepBsep-bound-dpm and expressed as percentage of control (without inhibitor).
compound,measurement,value
"CC(C)=CCCC(C)=CCCC(C)=CCP(=O)(O)OP(=O)(O)O [FPPA2, farnesyl phosphonophosphate]",IC50,290 ± 20 nM
